29 compounds from patent US20230014962A1, “Quinoline compound and use thereof” (SKYRUN PHARMA CO., LTD., priority 2019, published 2023) can be followed below.

Where only a bound is given, the exact number is not on record here.

One experiment addresses T1, FGFR4 (Homo sapiens, UniProt P22455).
T1 construct: purchased
Kind of experiment: Determination of FGFR4 inhibitory activity by fluorescence resonance energy transfer (FRET) method. In kind it is biochemical. The following applies: FGFR4 from purchased kit, read-out: In vitro FGFR4 kinase inhibitory activity IC50. From the text: 1. Determination of FGFR4 Inhibitory Activity of Target Compound
FGFR4 is obtained by direct purchase of a kit.

The test system of the next experiment is Hep3B cell. Kind of experiment: Determination of Hep3B cell inhibitory activity (Cell Titer-Glo, 72 h). In kind it is cell-based. The following applies: Hep3B cells, 72 h incubation, Cell Titer-Glo (CTG) method. From the text: 2. Determination of Hep3B Cell Inhibitory Activity of Target Compound

T1 sequence (P22455 22-802): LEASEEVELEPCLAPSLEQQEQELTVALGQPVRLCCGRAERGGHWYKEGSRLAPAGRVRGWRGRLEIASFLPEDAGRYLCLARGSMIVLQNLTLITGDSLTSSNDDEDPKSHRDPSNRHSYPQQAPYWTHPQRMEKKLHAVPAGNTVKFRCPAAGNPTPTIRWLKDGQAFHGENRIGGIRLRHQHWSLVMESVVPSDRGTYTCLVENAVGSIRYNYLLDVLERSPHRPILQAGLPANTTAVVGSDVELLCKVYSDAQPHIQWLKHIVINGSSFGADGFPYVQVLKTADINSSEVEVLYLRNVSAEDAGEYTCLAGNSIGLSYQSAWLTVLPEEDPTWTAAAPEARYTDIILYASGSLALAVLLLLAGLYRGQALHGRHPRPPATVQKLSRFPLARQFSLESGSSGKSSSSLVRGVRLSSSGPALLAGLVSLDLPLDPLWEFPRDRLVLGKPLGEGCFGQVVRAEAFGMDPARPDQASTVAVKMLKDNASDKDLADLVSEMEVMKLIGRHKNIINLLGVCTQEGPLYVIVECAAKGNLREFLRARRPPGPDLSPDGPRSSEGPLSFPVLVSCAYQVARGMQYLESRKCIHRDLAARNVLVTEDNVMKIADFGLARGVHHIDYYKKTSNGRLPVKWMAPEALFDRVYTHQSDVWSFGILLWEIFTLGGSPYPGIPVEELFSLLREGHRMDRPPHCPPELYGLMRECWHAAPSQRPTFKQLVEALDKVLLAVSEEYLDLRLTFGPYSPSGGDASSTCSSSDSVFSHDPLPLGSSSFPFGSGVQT

As usually defined, the IC50 is the concentration needed to halve the response being measured. For the compound `COc1cc2nccc(Oc3ccc(NC(=O)NC4CC4)c(Cl)c3)c2cc1C(N)=O` [Lenvatinib, reference compound], the results for the IC50 at FGFR4 and with Hep3B cell (Homo sapiens) were 43 nM and below 500 nM, respectively. `C=CS(=O)(=O)N1CC=C(c2cc3c(Oc4ccc(NC(=O)NC5CC5)c(Cl)c4)ccnc3cc2OC)CC1` [Compound I-3, 4-[3-chloro-4-(cyclopropylaminocarbonyl)aminophenoxyl]-6-[(1-ethylenesulfonyl-1,2,3,6-tetrahydropyridine)-4-yl]-7-methoxyquinoline]: the results for the IC50 at FGFR4 and with Hep3B cell (Homo sapiens) were below 5 nM and below 100 nM, respectively. For the compound `C=CC(=O)N1CC=C(c2cc3c(Oc4ccc(NC(=O)Nc5ccccc5)c(Cl)c4)ccnc3cc2OC)CC1` [Compound I-17, 4-[3-chloro-4-(phenylaminocarbonyl)aminophenoxy]-6-[(1-acryloyl-1,2,3,6-tetrahydropyridine)-4-yl]-7-methoxyquinoline], the IC50 was below 2 nM on FGFR4 and below 50 nM with Hep3B cell (Homo sapiens). On to `C=CC(=O)Nc1cccc(C)c1Nc1ncc2cc(-c3c(Cl)c(OC)cc(OC)c3Cl)ccc2n1` [Blu9931, reference compound], for which, in the experiment with Hep3B cell (Homo sapiens), the IC50 was found to be 174 nM.

“4-[3-chloro-4-cyclopropanecarboxylaminophenoxy]-6-[(1-chloroyl-1,2,3,6-tetrahydropyridine)-4 -yl]-7-methoxyquinoline [Compound I-5]”: the IC50 on FGFR4 is below 5 nM; with Hep3B cell it was below 100 nM. For “4-[3-chloro-4-(cyclopentylaminocarbonyl)aminophenoxy]-6-[(1-acryloyl-1,2,3,6-tetrahydropyridine)-4-yl]1-7-methoxyquinoline [Compound I-9]” the same measures were below 5 nM and below 100 nM. For the compound `C=CC(=O)N1CCC(c2cc3c(Oc4ccc(NC(=O)NC5CC5)c(Cl)c4)ccnc3cc2OC)C1` (centres unmarked) [Compound I-23, 4-[3-chloro-4-(cyclopropylaminocarbonyl)aminophenoxy]-6-[(1-acryloyl-tetrahydropyrrole)-3-yl]-7-methoxyquinoline], the IC50 on FGFR4 is below 5 nM; with Hep3B cell (Homo sapiens), below 500 nM.

As to `C=CC(=O)N1CC=C(c2cc3c(Oc4ccc(NC(=O)NC5CC5)cc4)ccnc3cc2OC)CC1` [Compound I-20, 4-[4-(cyclopropylaminocarbonyl)aminophenoxy]-6-[(1-acryloyl-1,2,3,6-tetrahydropyridine)-4-yl]-7-methoxyquinoline], the results for the IC50 at FGFR4 and with Hep3B cell (Homo sapiens) were below 5 nM and below 500 nM, respectively. In the same order, the values of `C=CC(=O)N1CC=C(c2cc3c(Oc4ccc(NC(=O)NC5CC5)c(Cl)c4)ccnc3cc2OC(C)C)CC1` [Compound I-11, 4-[3-chloro-4-(cyclopropylaminocarbonyl)aminophenoxy]-6-[(1-acryloyl-1,2,3,6-tetrahydropyridine)-4-yl]-7-isopropylquinoline] are below 2 nM and below 50 nM. For `C=CC(=O)N1CC=C(c2cc3c(Nc4ccc(NC(=O)NC5CC5)c(Cl)c4)ccnc3cc2OC)CC1` [Compound I-26, 4-[3-chloro-4-(cyclopropylaminocarbonyl)aminophenylamino]-6-[(1-acryloyl-1,2,3,6-tetrahydropyridine)-4-yl]-7-methoxyquinoline] the same measures were below 5 nM and below 500 nM. As for `C=CC(=O)N1CC=C(c2cc3c(Oc4ccc(NC(=O)NC5CC5)c(F)c4)ccnc3cc2OC)CC1` [Compound I-19, 4-[3-fluoro-4-(cyclopropylaminocarbonyl)aminophenoxy]-6-[(1-acryloyl-1,2,3,6-tetrahydropyridine)-4-yl]-7-methoxyquinoline], the IC50 was below 2 nM at FGFR4 and below 50 nM in the experiment with Hep3B cell (Homo sapiens).

With `C=CC(=O)N1CC=C(c2cc3c(Oc4ccc(NC(=O)NC(C)(C)C)c(Cl)c4)ccnc3cc2OC)CC1` [Compound I-16, 4-[3-chloro-4-(tert-butylaminocarbonyl)aminophenoxy]-6-[(1-acryloyl-1,2,3,6-tetrahydropyridine)-4-yl]-7-methoxyquinoline], the IC50 at FGFR4 was below 5 nM; in the experiment with Hep3B cell (Homo sapiens), below 50 nM.

On to `C=CC(=O)N1CC=C(c2cc3c(Oc4ccc(NC(=O)C5CCCC5)c(Cl)c4)ccnc3cc2OC)CC1` [Compound I-6], for which the IC50 on FGFR4 is below 5 nM; with Hep3B cell (Homo sapiens), below 100 nM. For `C=CC(=O)N1CC=C(c2cc3c(Oc4ccc(NC(=O)NC5CC5)c(Cl)c4)ccnc3cc2OC2CCCC2)CC1` [Compound I-12] the same measures were below 5 nM and below 100 nM.

Turning to `C=CC(=O)N1CC=C(c2cc3c(Oc4ccc(NC(=O)NC5CC5)cc4F)ccnc3cc2OC)CC1` [Compound I-18, 4-[2-fluoro-4-(cyclopropylaminocarbonyl)aminophenoxy]-6[(1-acryloyl-1,2,3,6-tetrahydropyridine)-4-yl]-7-methoxyquinoline], the values for the IC50 at FGFR4 and with Hep3B cell were below 5 nM and below 50 nM, respectively. For “4-[2,6-dichloro-4-(cyclopropylaminocarbonyDaminobenzeneamino]-6-[(1-acryloyl-1,2,3,6-tetrahydropyridine)-4-yl]-7-methoxyquinoline [Compound I-27]” the same measures were below 5 nM and below 500 nM.

As for “4-[3-chloro-4-(cyclopropylaminocarbonyl)aminophenoxy]-6-[(1-acryloyl-1,2,3,6-tetrahydropyridine)-4-yl]-7-ethylquinoline [Compound I-13]”, the IC50 was below 2 nM on FGFR4 and below 50 nM in the experiment with Hep3B cell. Turning to “4-[3-chloro-4-cyclohexanecarbonylaminophenoxy]-6-[(1-chloroyl-1,2,3,6-tetrahydropyridine)-4-yl]-7-methoxyquinoline [Compound I-7]”, the values for the IC50 on FGFR4 and in the experiment on Hep3B cell were below 2 nM and below 50 nM, respectively. For `C=CC(=O)N1CC=C(c2cc3c(Oc4ccc(NC(=O)NC5CC5)c(Cl)c4)ccnc3cc2OCCN2CCOCC2)CC1` [Compound I-14], the IC50 is below 5 nM at FGFR4 and below 100 nM with Hep3B cell (Homo sapiens). For `C=CC(=O)N1CCC=C(c2cc3c(Oc4ccc(NC(=O)NC5CC5)c(Cl)c4)ccnc3cc2OC)C1` [Compound I-21, 4-[3-chloro-4-(cyclopropylaminocarbonyl)aminophenoxy]-6-[(1-acryloyl-1,2,5,6-tetrahydropyridine)-3-yl]-7-methoxyquinoline] the same measures were below 5 nM and below 500 nM. In the case of “4-[3-chloro-4-(cyclopropylaminocarbonyl)aminophenoxy]-6-[(1-acryloyl-piperidine)-4-yl]-7-methoxyquinoline [Compound I-8]”, the IC50 was below 2 nM on FGFR4 and below 50 nM with Hep3B cell.

Consider “4-[3-chloro-4-(cyclopropylaminocarbonyl)aminophenoxy]-6-[(1-acryloyl-1,2,3,6-tetrahydropyridine)-4-yl]-7-methoxyquinoline [Compound I-1]”, for which the IC50 at FGFR4 was below 2 nM; in the experiment with Hep3B cell it was below 50 nM.

With `C=CC(=O)N1CC=C(c2cc3c(Sc4ccc(NC(=O)NC5CC5)c(Cl)c4)ccnc3cc2OC)CC1` [Compound I-25, 4-[3-chloro-4-(cyclopropylaminocarbonyl)aminophenylmercapto]-6-[(1-acryloyl-1,2,3,6-tetrahydropyridine)-4-yl]-7-methoxyquinoline], the results for the IC50 on FGFR4 and with Hep3B cell (Homo sapiens) were below 5 nM and below 100 nM, respectively. As for “4-[3-chloro-4-(cyclopropylaminocarbonyl)aminophenoxy]-6-[(1-diethylphosphorylacetyl-1,2,3,6-tetrahydropyridine)-4-yl]-7-methoxyquinoline [Compound I-2]”, the IC50 is below 5 nM at FGFR4 and below 100 nM in the experiment on Hep3B cell.

As for `C=CC(=O)N1CC=C(c2cc3c(Oc4ccc(NC(=O)NC5CCCCC5)c(Cl)c4)ccnc3cc2OC)CC1` [Compound I-15, 4-[3-chloro-4-(cyclohexylaminocarbonyl)aminophenoxy]-6-[(1-acryloyl-1,2,3,6-tetrahydropyridine)-4-yl]-7-methoxyquinoline], the IC50 with Hep3B cell (Homo sapiens) is below 50 nM. For `C=CC(=O)N1CC=C(c2cc3c(Oc4ccc(C(=O)NC5CC5)c(Cl)c4)ccnc3cc2OC)CC1` [Compound I-24, 4-[3-chloro-4-(cyclopropylamino)carbonylphenoxy]-6-[(1-acryloyl-1,2,3,6-tetrahydropyridine)-4-yl]-7-methoxyquinoline], the IC50 is below 2 nM on FGFR4 and below 50 nM in the experiment on Hep3B cell (Homo sapiens). As for “4-[3-chloro-4-(cyclopropylaminocarbonyl)aminophenoxy]-6-[(1-chloroyl-1,2,3,6-tetrahydropyridine)-4-yl]-7-methoxyquinoline [Compound I-4]”, the IC50 at FGFR4 was below 5 nM; in the experiment with Hep3B cell it was below 100 nM. For the compound `C=CC(=O)N1CC=C(c2cc3c(Oc4ccc(NC(=O)NC5CC5)c(Cl)c4)ccnc3cc2OC)C1` [Compound I-22, 4-[3-chloro-4-(cyclopropylaminocarbonyl)aminophenoxy]-6-[(1-acryloyl-2,5-dihydropyrrole)-3-yl]-7-methoxyquinoline], the IC50 on FGFR4 was below 5 nM; with Hep3B cell (Homo sapiens), below 100 nM. In the same order, the values of `C=CC(=O)N1CC=C(c2cc3c(Oc4ccc(NC(=O)NC5CC5)c(Cl)c4)ccnc3cc2OCc2ccccc2)CC1` [Compound I-10] are below 5 nM and below 100 nM.
